# Values joined by “and” are separate entries in the source; they are usually repeats but may differ in a detail not shown here. Equal values may be shown once. Read-outs that look alike come from different tables or passages of the source.
# Columns and labels:
# [1] = biological target: T1, Integrin αvβ6 Receptor (Homo sapiens, UniProt P06756+P18564); test: HTRF binding activity to integrin αvβ6 receptor (competition with LAP (TGF-beta 1)); details: for Hillslope: fit parameter of the inhibition curve; for Max: maximum of the inhibition curve; for Min: minimum of the inhibition curve; for specific binding ability to the αvβ6 receptor: αvβ6 compared with αvβ1 and αvβ5
# Protocol: Main Experimental Reagents and Consumables
# Inhibition rate and fit IC50 was calculated using Excel and XL-Fit respectively, formula as follows: Inhibition % = (Max−Signal)/(Max−Min)*100 [formula] Y = Bottom + (Top−Bottom)/(1+(IC50/X)[…]), [formula] Y and X represent %inhibition and compound concentration respectively
# [2] = biological target: T1, Integrin αvβ6 Receptor; test: as above; details: for Hillslope: fit parameter of the inhibition curve; for Emax: maximum of the inhibition curve, read-out: Max; for IC50: table of 5FAM-labelled compounds
# Protocol: Reagent Preparation: Assay buffer was prepared.
# [3] = biological target: Integrin αvβ1 Receptor (Homo sapiens, UniProt P05556+P06756); test: Fluorescence polarization (FP) binding activity to integrin αvβ1 receptor (competition with Cyclo[-RGDy-K(5-FAM)]); details: Table 4, different integrin receptors
# [4] = biological target: Integrin αvβ5 Receptor (Homo sapiens, UniProt P06756+P18084); test: HTRF binding activity to integrin αvβ5 receptor (competition with Vitronectin); details: IC50 (nM) αvβ5, Table 4, different integrin receptors
# Protocol: B. Evaluation of Compound Binding Activity to Integrin αvβ5 Receptor using Homogeneous Time-Resolved Fluorescence (HTRF) Technology
# Compound Preparation: Same as A.
# Then 5 µL of integrin receptor protein αvβ5 was added (5 µL of assay buffer was added for negative control), incubated at room temperature for 20 minutes. Next, 5 µL of ligand protein VTN, and 10 µL of the SA-Tb and Anti-His XL665 mixture were added respectively, incubated at room temperature for 1 hour.
# [5] = Integrin αvβ6, HTRF, Table 3, several runs, each with Cilengitide and 1 as references, read-out: IC50
# [6] = Integrin αvβ6, HTRF, table of 5FAM-labelled compounds, read-out: IC50
# [7] = Table 4, different integrin receptors, read-out: IC50 (nM) αvβ6
# Sequence of Integrin αvβ1 Receptor (P06756 31-992 limits assumed): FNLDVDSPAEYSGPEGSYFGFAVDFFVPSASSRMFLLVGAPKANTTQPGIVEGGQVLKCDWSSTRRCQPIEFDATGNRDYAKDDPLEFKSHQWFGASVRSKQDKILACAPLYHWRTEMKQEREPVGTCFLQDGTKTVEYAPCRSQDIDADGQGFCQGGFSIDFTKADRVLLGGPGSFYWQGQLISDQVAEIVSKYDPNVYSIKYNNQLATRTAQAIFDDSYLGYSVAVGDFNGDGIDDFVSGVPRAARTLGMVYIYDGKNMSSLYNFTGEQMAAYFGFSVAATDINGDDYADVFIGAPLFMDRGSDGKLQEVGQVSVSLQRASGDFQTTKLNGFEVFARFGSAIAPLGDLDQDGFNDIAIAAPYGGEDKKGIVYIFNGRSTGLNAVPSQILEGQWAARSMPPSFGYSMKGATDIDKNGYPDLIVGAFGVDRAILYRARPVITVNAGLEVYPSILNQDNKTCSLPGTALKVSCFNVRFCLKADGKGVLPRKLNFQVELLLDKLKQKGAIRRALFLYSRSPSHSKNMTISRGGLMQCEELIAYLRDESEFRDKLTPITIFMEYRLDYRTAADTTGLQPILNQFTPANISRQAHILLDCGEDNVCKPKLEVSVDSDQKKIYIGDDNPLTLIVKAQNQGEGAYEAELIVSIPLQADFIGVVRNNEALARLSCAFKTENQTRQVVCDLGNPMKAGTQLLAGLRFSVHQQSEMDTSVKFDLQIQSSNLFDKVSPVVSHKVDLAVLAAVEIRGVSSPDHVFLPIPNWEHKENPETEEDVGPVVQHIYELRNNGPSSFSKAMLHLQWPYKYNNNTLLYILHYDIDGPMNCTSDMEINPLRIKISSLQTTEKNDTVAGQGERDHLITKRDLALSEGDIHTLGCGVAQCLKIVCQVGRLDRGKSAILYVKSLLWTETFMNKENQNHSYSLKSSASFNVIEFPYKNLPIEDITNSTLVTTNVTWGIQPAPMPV
# Sequence of Integrin αvβ1 Receptor (P05556 21-728 limits assumed): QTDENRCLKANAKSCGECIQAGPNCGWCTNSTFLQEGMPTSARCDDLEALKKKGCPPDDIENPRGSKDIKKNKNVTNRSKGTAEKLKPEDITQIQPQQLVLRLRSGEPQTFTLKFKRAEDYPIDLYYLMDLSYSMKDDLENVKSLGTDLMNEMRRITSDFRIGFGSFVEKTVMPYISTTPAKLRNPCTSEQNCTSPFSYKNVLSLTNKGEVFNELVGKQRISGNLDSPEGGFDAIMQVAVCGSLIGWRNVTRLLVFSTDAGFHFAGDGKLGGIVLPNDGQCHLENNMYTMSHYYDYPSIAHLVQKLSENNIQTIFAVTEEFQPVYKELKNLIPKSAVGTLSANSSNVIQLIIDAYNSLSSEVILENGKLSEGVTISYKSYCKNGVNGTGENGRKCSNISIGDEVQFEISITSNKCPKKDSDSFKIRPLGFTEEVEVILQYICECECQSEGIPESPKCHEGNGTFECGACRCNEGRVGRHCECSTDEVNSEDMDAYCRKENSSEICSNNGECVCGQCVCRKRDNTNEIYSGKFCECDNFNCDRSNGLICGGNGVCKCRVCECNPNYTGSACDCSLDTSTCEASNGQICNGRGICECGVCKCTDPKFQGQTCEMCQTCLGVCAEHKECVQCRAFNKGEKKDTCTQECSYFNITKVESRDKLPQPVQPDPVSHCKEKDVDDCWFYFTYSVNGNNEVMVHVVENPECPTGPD
# T1 sequence (P06756 31-992 limits assumed): as the sequence (P06756 31-992 limits assumed) above
# T1 sequence (P18564 22-707 limits assumed): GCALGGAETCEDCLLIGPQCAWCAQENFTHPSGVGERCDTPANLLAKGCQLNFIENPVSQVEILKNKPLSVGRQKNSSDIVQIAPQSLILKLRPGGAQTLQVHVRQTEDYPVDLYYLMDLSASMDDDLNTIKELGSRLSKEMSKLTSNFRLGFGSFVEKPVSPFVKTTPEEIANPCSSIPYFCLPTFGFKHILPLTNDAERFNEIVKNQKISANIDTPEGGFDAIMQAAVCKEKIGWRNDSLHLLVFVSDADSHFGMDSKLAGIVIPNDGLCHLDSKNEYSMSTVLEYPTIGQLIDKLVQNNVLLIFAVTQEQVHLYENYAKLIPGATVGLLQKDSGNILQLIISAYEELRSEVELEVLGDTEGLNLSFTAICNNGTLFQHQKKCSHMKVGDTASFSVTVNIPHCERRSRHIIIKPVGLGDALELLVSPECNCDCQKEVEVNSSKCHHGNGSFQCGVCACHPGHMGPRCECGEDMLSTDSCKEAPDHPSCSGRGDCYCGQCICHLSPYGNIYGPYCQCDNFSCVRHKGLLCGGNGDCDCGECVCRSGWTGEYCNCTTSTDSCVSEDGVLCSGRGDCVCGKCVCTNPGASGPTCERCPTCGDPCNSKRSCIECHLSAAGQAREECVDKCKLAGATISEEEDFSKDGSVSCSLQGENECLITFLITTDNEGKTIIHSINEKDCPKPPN
# Sequence of Integrin αvβ5 Receptor (P06756 31-992 limits assumed): as the sequence (P06756 31-992 limits assumed) above
# Sequence of Integrin αvβ5 Receptor (P18084 24-719 limits assumed): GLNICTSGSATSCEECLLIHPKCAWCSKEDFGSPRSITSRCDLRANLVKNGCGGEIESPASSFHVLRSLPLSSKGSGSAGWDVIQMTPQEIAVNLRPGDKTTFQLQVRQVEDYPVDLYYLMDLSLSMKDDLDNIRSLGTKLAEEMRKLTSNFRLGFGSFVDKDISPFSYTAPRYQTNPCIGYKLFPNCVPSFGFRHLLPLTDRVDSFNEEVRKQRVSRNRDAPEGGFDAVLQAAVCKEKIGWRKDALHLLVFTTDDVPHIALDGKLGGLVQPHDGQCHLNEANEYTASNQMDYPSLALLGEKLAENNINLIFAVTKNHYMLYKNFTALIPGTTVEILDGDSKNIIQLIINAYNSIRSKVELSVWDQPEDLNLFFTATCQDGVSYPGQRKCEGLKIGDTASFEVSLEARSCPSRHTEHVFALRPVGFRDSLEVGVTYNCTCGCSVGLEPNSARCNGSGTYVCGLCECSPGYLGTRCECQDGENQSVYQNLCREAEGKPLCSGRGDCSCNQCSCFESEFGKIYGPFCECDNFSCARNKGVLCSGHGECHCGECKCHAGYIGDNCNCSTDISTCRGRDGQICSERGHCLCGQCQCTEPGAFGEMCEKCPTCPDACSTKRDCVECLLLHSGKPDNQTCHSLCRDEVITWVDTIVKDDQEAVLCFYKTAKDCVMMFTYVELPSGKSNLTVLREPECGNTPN
smiles,measurement,setting,value
Cc1cc(C)n(-c2cccc(C(CC(=O)O)CN3CCC(CCc4nc5c(cc4CNC(=O)CCOCCOCCOCCOCCN=[N+]=[N-])CCCN5)C3)c2)n1 (stereo not drawn) [Compound 13],IC50,[1]; [5],2.5 nM and 1.7 nM
[N-]=[N+]=NCCOCCOCCOCCOCCOc1cc(-c2ccccc2)cc(C(CC(=O)O)CN2CCC(CCc3ccc4c(n3)NCCC4)C2)c1 (stereo not drawn) [Compound 59],IC50,[1]; [5],2.9 nM
Cc1ccnc(NCCCC(=O)NCC(=O)N[C@@H](CC(=O)O)c2ccc(-c3ccc(OCCOCCOCCOCCOCCn4cc(COCCOCCNC(=O)CCC(CCC(=O)NCCOCCOCc5cn(CCOCCOCCOCCOCCOc6ccc(-c7ccc([C@H](CC(=O)O)NC(=O)CNC(=O)CCCNc8cc(C)ccn8)cc7)c7ccccc67)nn5)(CCC(=O)NCCOCCOCc5cn(CCOCCOCCOCCOCCOc6ccc(-c7ccc([C@H](CC(=O)O)NC(=O)CNC(=O)CCCNc8cc(C)ccn8)cc7)c7ccccc67)nn5)NC(=O)CCCC(=O)NCCCCCCNC(=O)c5ccc6c(c5)C(=O)OC65c6ccc(O)cc6Oc6cc(O)ccc65)nn4)c4ccccc34)cc2)c1 [Compound 1-3-5FAM],Hillslope,[2],1.6
same,Emax,[2],107%
same,IC50,[2],2.52 nM
O=C(O)CC(NC(=O)CCCCc1nc2c(cc1CNC(=O)CCOCCOCCOCCOCCNC(=O)c1ccc3c(c1)C(=O)OC31c3ccc(O)cc3Oc3cc(O)ccc31)CCCN2)c1ccc(-c2cccc3ccccc23)cc1 (stereo not drawn) [Compound 9-5FAM],Hillslope,"[1]; Integrin αvβ6, HTRF",2.0
same,Max,"[1]; Integrin αvβ6, HTRF",103.1
same,Min,"[1]; Integrin αvβ6, HTRF",-2.2
same,IC50,[1]; [6],1.48 nM
Cc1ccnc(NCCCC(=O)N2CCN(C(CC(=O)O)c3ccc(-c4ccc(OCCOCCOCCOCCOCCn5cc(CNC(=O)c6ccc7c(c6)C(=O)OC76c7ccc(O)cc7Oc7cc(O)ccc76)nn5)c5ccccc45)cc3)CC2)c1 (stereo not drawn) [Compound 4-5FAM],Hillslope,[2],1.1
same,Emax,[2],100%
[N-]=[N+]=NCCOCCOCCOCCOCCOc1cc(C(CC(=O)O)CN2CCC(CCc3ccc4c(n3)NCCC4)C2)ccc1F (stereo not drawn) [Compound 86],IC50,[1]; [5],4.5 nM
O=C(NCc1cn(CCOCCOCCOCCOCCOCCN(CCCCc2ccc3c(n2)NCCC3)CC[C@H](Nc2ncnc3ccccc23)C(=O)O)nn1)c1ccc2c(c1)C(=O)OC21c2ccc(O)cc2Oc2cc(O)ccc21 [Compound 16-5FAM],Hillslope,[2],1.4
same,Emax,[2],101%
same,IC50,[2],1.77 nM
"[N-]=[N+]=NCCOCCOCCOCCOCCOc1cccc([C@H](CC(=O)O)CN2CC[C@@H](CCc3ccc4c(n3)NCCC4)C2)c1 (single isomer, unassigned) [Compound 18-P1]",IC50,[3],9.1 nM
same,IC50,[4],0.6 nM
same,IC50,[1]; [5],3.2 nM
same,IC50,[1]; [7],3.2 nM
"[N-]=[N+]=NCCOCCOCCOCCOCCOc1ccc([C@H](CC(=O)O)CN2CC[C@@H](CCc3ccc4c(n3)NCCC4)C2)cc1 (single isomer, unassigned) [Compound 20-P1]",IC50,[3],8.1 nM
same,IC50,[4],0.7 nM
same,IC50,[1]; [5],3.7 nM
same,IC50,[1]; [7],3.7 nM
COCCOc1cc(OCCOCCOCCOCCOCCN=[N+]=[N-])cc(C(CC(=O)O)CN2CCC(CCc3ccc4c(n3)NCCC4)C2)c1 (stereo not drawn) [Compound 57],IC50,[1]; [5],3.3 nM
[N-]=[N+]=NCCOCCOCCOCCOCCOc1cccc(C(CC(=O)O)CN2CCC(CCc3ccc4c(n3)NCCC4)C2)c1 (stereo not drawn) [Compound 18-P2],IC50,[1]; [5],13.9 nM
O=C(O)c1ccc2c(c1)C(=O)OC21c2ccc(O)cc2Oc2cc(O)ccc21 [Compound 5FAM],Hillslope,"[1]; Integrin αvβ6, HTRF",-11.5
same,Max,"[1]; Integrin αvβ6, HTRF",6.3
same,Min,"[1]; Integrin αvβ6, HTRF",-2.8
same,IC50,[1]; [6],> 100 nM
Cc1ccnc(NCCCC(=O)NCC(=O)N[C@@H](CC(=O)O)c2ccc(-c3ccc(OCCOCCOCCOCCOCCn4cc(CNC(=O)c5ccc6c(c5)C(=O)OC65c6ccc(O)cc6Oc6cc(O)ccc65)nn4)c4ccccc34)cc2)c1 [Compound 1-5FAM],Emax,[2],97%
same,IC50,[2],1.41 nM
COC(=O)C[C@H](NC(=O)CNC(=O)CCCN(C(=O)OC(C)(C)C)c1cc(C)ccn1)c1ccc(-c2ccc(OCCOCCOCCOCCOCCn3cc(CNC(=O)c4ccc5c(c4)C(=O)OC54c5ccc(O)cc5Oc5cc(O)ccc54)nn3)c3ccccc23)cc1 [Compound 1NG-5FAM],Hillslope,[2],2.5
same,Emax,[2],100%
same,IC50,[2],41.9 nM
"Cc1ccnc(NCCC2CCN(CC(=O)NC(CC(=O)O)c3ccc(-c4ccc(OCCOCCOCCOCCOCCN=[N+]=[N-])c5ccccc45)cc3)C2=O)c1 (single isomer, unassigned) [Compound 5-P1]",IC50,[3],753 nM
same,IC50,[4],83.4 nM
same,IC50,[1]; [5],3.6 nM
same,IC50,[1]; [7],3.6 nM
same,specific binding ability to the αvβ6 receptor,[1],specific binding ability to the αvβ6 receptor
"Cc1ccnc(NCCC2CCN(CC(=O)NC(CC(=O)O)c3ccc(-c4ccc(OCCOCCOCCOCCOCCN=[N+]=[N-])c5ccccc45)cc3)C2=O)c1 (single isomer, unassigned) [Compound 5-P2]",IC50,[3],333 nM
same,IC50,[4],142 nM
same,IC50,[1]; [5],3.9 nM
same,IC50,[1]; [7],3.9 nM
same,specific binding ability to the αvβ6 receptor,[1],specific binding ability to the αvβ6 receptor
Cc1nn(-c2cccc(C(CC(=O)O)CN3CC[C@@H](CCc4ccc5c(n4)NCCC5)C3)c2)c(C)c1OCCOCCOCCOCCOCCN=[N+]=[N-] (stereo partly drawn) [Compound 14],IC50,[1]; [5],4.9 nM and 2.8 nM
